US5279935A, “Method of immunossay including deactivation of endogenous alkaline phosphatase” (Becton, Dickinson and Company, priority 1990, dated 1994)
Like-named read-outs stand apart in the source and are kept apart here.

How the values were obtained:
E. coli AP = E. coli AP (Escherichia coli, UniProt P00634); type: biochemical
[1] = tested on: endogenous AP in uninfected MDCK cells; design: species or system canine
[2] = 4.8 units/test of E. coli AP spike
[3] = 4.8 units/test of E. coli AP spike, no antigen, acid wash 0.15M
[4] = 600 ng uninfected MDCK cells, acid wash 0.15M

Sequence of E. coli AP (P00634 22-471): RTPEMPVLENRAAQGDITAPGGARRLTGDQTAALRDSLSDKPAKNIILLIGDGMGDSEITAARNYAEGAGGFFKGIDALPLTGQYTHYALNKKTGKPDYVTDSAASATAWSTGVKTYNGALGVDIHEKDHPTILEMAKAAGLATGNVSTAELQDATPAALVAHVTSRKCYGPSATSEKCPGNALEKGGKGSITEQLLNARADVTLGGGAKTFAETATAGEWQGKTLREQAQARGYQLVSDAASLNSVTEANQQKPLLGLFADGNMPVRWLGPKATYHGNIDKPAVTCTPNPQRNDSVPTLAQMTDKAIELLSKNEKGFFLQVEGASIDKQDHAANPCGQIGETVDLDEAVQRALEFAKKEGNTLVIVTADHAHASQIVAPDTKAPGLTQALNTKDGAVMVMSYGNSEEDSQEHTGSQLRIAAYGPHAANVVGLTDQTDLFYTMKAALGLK

| Structure (SMILES) | reduction of signal due to the AP spike in comparison to the control (no acid) (E. coli AP; [2]) | reflectance (E. coli AP; [3]) | Reflectance (arbitrary units) [1, 4] | visual (E. coli AP; [3]) | reflectance (E. coli AP) | visual (E. coli AP) | Reflectance (arbitrary units) [1] |
| --- | --- | --- | --- | --- | --- | --- | --- |
| O=C(O)CC(O)(CC(=O)O)C(=O)O [A, citric acid] | most effective | .03 | .12 arbitrary units |  |  |  |  |
| O=C(O)CCCC(=O)O [B, glutaric acid] |  | .06 | .10 arbitrary units | (+) |  |  |  |
| O=C(O)C(O)C(O)C(=O)O (stereo not drawn) [C, tartaric acid] | most effective | .04 | .10 arbitrary units |  |  |  |  |
| O=C(O)CCC(=O)O [D, succinic acid] |  |  |  |  | .06 | (+) | .10 arbitrary units |
| O=C(O)CC(O)C(=O)O (stereo not drawn) [E, malic acid] |  | .06 | .12 arbitrary units | (+) |  |  |  |
| CC(O)C(=O)O (stereo not drawn) [F, lactic acid] |  | .06 | .12 arbitrary units | (+) |  |  |  |
